These results are taken from patent US10782295B2, “Cysteine-reactive ligand discovery in proteomes” (THE SCRIPPS RESEARCH INSTITUTE, priority 2013, dated 2020).

In the assay the test system is AKT1/2/3. In words: competitive isoTOP-ABPP, concentration-dependent HNE. To be noted: MDA-MB-231 proteome, read-out: IC50 for inhibition of cysteine (C311) in AKT1/2/3. The class given is binding, human. The method, then:
The MDA-MB-231 cell proteome was treated with varying concentrations of HNE (5, 10, 50, 100 and 500 μM) for 60 min and then the IA-labeling profile of each reaction was quantitatively compared to a DMSO-control sample by isoTOP-ABPP.
By combining the R values at all 5 HNE concentrations, we could extrapolate IC50 values for […] of IA probe-labeling for ˜700 of the 1100 cysteines (FIG. 3a).
HNE was purchased from EMD biosciences, 15d-PGJ2 was purchased from Cayman Chemicals and 2-HD was purchased from Santa Cruz Biotechnology. Proteome samples were diluted to a 4 mg protein/mL solution in PBS. […]
IA-probe labeled peptides were identified by SEQUEST2 and DTASelect3, and the quantification of heavy/light ratios (isoTOP-ABPP ratios, R) was performed by an in-house software (CIMAGE) as previously described. The software was advanced to be able to detect and quantify cases where near complete […] blockade of IA-probe labeling was achieved (e.g., very small or no light peak) and assign an empirical ratio cut-off of 15 to each of such cases. […] In the case of probe-modified peptides that were sequenced in one, but not the other runs, a featured algorithm of CIMAGE was utilized to identify the corresponding peak pairs in the runs without the SEQUEST identification and obtain quantification as previously described. […]

As to `CCCCCC(O)/C=C/C=O` (stereo not shown) [4-HNE, 4-Hydroxynonenal], the IC50 was 60 µM.
